The source of these data is publication PMC7730205, “Different Sensitivity of Control and MICU1- and MICU2-Ablated Trypanosoma cruzi Mitochondrial Calcium Uniporter Complex to Ruthenium-Based Inhibitors” (International Journal of Molecular Sciences, 2020).

The target in experiment [1] is T. cruzi mitochondrial Ca2+ uniporter complex (MCUC), control cells (Trypanosoma cruzi, UniProt Q4DHJ5+Q4DL37+Q4DYG3). The experiment is described as follows: Ca2+ uptake by digitonin-permeabilized control epimastigotes (calcium green-5N). It is filed as cell-based. To be noted: control (scrambled sgRNA) epimastigotes, ~30 µM Ca2+, 5 mM succinate, initial rate, read-out: IC50, inhibition of mitochondrial Ca2+ uptake. An excerpt: (§1) We first tested the effect of different concentrations of inhibitors on Ca^2+ uptake, as measured by the change in fluorescence of calcium green 5-N, by digitonin-permeabilized control and TcMICU1-KO and TcMICU2-KO epimastigotes. These KO cells were obtained by the CRISPR/Cas9 method in previous work, and we used cells transfected with a scrambled sgRNA as control.
Chain of T. cruzi mitochondrial Ca2+ uniporter complex (MCUC), control cells (Q4DL37 entry or part of it): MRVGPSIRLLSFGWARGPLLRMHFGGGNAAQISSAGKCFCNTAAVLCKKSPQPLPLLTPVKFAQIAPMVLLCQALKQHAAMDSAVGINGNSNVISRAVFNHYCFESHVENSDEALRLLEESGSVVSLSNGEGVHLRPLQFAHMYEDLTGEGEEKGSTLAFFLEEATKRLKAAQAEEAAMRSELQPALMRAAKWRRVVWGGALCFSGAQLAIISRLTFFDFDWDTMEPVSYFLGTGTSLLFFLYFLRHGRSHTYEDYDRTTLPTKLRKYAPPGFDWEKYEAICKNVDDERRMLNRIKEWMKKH
Chain of T. cruzi mitochondrial Ca2+ uniporter complex (MCUC), control cells (Q4DHJ5 entry or part of it): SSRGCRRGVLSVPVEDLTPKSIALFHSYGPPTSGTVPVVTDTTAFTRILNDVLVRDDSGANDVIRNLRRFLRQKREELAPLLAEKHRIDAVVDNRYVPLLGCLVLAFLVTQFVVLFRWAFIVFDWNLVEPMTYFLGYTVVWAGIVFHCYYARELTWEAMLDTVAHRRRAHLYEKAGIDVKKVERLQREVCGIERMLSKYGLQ
Chain of T. cruzi mitochondrial Ca2+ uniporter complex (MCUC), control cells (Q4DYG3 entry or part of it): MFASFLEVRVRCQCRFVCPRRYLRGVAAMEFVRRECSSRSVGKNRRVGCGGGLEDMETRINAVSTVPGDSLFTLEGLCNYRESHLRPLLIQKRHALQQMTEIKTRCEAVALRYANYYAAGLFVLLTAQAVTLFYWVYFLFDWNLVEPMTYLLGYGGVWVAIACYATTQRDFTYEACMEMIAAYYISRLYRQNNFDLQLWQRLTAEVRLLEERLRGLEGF
Chain of T. cruzi mitochondrial Ca2+ uniporter complex (MCUC), control cells (Q4E667 entry or part of it, further chain): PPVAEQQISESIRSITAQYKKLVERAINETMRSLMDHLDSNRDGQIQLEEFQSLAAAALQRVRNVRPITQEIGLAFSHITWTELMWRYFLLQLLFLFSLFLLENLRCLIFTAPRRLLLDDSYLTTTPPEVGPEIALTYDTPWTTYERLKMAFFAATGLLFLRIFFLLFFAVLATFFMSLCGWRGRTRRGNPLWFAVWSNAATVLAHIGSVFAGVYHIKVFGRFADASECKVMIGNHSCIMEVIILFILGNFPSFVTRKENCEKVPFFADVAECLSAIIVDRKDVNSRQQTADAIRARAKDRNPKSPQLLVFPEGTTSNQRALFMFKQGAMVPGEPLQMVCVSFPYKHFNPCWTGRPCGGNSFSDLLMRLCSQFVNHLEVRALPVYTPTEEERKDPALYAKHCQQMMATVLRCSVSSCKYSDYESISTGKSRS
As is shown in Figure 2a, extramitochondrial Ca^2+ was sequestered in the mitochondria of control cells and released by the uncoupler FCCP.
(§2) Figure 2 Inhibition of mitochondrial Ca^2+ uptake by ruthenium-based compounds. Representative traces of Ca^2+ uptake by digitonin-permeabilized epimastigotes in control (a), TcMICU1-KO (b), and TcMICU2-KO (c) epimastigotes in the presence of different Ru360 concentrations. C, control cells; TcMICU1-KO cells; and TcMICU2-KO cells. The reaction was started after adding 50 μM digitonin (Dig) in the presence of ~30 μM CaCl2, 5 mM succinate, and 0.5 μM calcium green-5N, in the presence or absence of Ru360. Where indicated, 4 μM FCCP was added. (d–f) Dose–response inhibition of the initial rate of mitochondrial Ca^2+ uptake in control (C), TcMICU1-KO (1-KO), and TcMICU2-KO (2-KO) cells treated with RuRed (d), Ru360 (e) or Ru265 (f).
(§3) Cells were collected by centrifugation at 1000× g for 7 min and washed twice with buffer A with glucose (BAG: 116 mM NaCl, 5.4 mM KCl, 0.8 mM MgSO4, 5.5 mM D-glucose, and 50 mM HEPES, pH 7.0). […] Mitochondrial Ca^2+ uptake was initiated by the addition of ~30 μM of free calcium, which was calculated using the software Maxchelator Calculator v1.2 (https://somapp.ucdmc.ucdavis.edu/pharmacology/bers/maxchelator/CaEGTA-NIST.htm). […] Fluorescence changes were monitored in an F-7000 fluorescence spectrophotometer (Hitachi, Dallas, TX, USA) with excitation at 506 nm and emission at 532 nm. […] Kd for Ca^2+ indicator probes in our conditions was determined, according to Chweih et al.. Uptake rate inhibitions were calculated as the first derivative of the absolute values of the slope by using the SLOPE Excel function for 200 points (300 to 500 s). […]

The next experiment deals with mammalian mitochondria. To be noted: cited from earlier work.
Experiment [2] has as its system T. cruzi epimastigotes (control, TcMICU1-KO, TcMICU2-KO). The experiment is described as follows: Mitochondrial membrane potential of digitonin-permeabilized epimastigotes (safranine O). Type of experiment: cell-based, Trypanosoma cruzi. To be noted: TcMICU1-KO or TcMICU2-KO cells, succinate. The text has this: To determine whether the defect in mitochondrial Ca^2+ uptake in the presence of inhibitors was not secondary to mitochondrial membrane depolarization, we measured the mitochondrial membrane potential (Δψm) of digitonin-permeabilized epimastigotes using safranine O in the presence of succinate as mitochondrial substrate.
Figure 3 Effect of inhibitors on the mitochondrial membrane potential of epimastigotes. Changes in mitochondrial membrane potential (Δψm) of digitonin-permeabilized epimastigotes as detected by changes in safranine O fluorescence in control (a), TcMICU1-KO (b), and TcMICU2-KO (c) epimastigotes in the absence or presence of inhibitors. Cells (5 × 10^7) were added to the reaction buffer (2 mL) containing 0.2% BSA, 5 mM succinate, 50 μM EGTA and 5 μM safranine O. The reaction was started with 50 μM digitonin (DIG) in the presence or absence of the inhibitor, and 250 μM ADP, 1.5 μM carboxyatractyloside (CAT), 50 μM CaCl2 (Ca^2+), 200 μM EGTA, and 4 μM FCCP were added when indicated. A decrease in fluorescence after permeabilization with digitonin indicated the accumulation of the dye in energized mitochondria. The addition of ADP produced a small dissipation of membrane potential, indicating ADP phosphorylation. Δψm returned to its initial level after the addition of the adenine nucleotide translocator inhibitor CAT. The addition of FCCP collapsed the membrane potential. (d) Changes in safranine O fluorescence after digitonin addition (between 30 and 60 s) in control (C), TcMICU1-KO and TcMICU2-KO epimastigotes. […] Changes in safranine O fluorescence in control (C) (e), TcMICU1-KO (1-KO) (f), and TcMICU2-KO (2-KO) (g) epimastigotes after addition of ADP from three experiments like that shown in panels (a–c).
Estimation of mitochondrial membrane potential in situ was done spectrofluorometrically using the indicator dye safranine O, as described previously. […] Fluorescence changes were monitored using the Hitachi F-7000 spectrofluorometer (excitation of 495 nm and emission of 586 nm).

Experiment [3] addresses T. cruzi mitochondrial Ca2+ uniporter complex, TcMICU2-KO cells (Trypanosoma cruzi, UniProt Q4DHJ5+Q4DL37+Q4DYG3). The experiment is described as follows: Ca2+ uptake by digitonin-permeabilized TcMICU2-KO epimastigotes (calcium green-5N). The conditions noted are these: ~30 µM Ca2+, 5 mM succinate, initial rate, read-out: IC50, inhibition of mitochondrial Ca2+ uptake. It is filed as cell-based.
Text: as §1, §2
(§4) When dose–response effects were measured in TcMICU1-KO and TcMICU2-KO cells we noticed that these cells were, in general, more sensitive to the inhibitors.
as §3

For experiment [4], the target named is T. cruzi mitochondrial Ca2+ uniporter complex, TcMICU1-KO cells (Trypanosoma cruzi, UniProt Q4DHJ5+Q4DL37+Q4DYG3). The experiment is described as follows: Ca2+ uptake by digitonin-permeabilized TcMICU1-KO epimastigotes (calcium green-5N). Type of experiment: cell-based. The conditions noted are these: ~30 µM Ca2+, 5 mM succinate, initial rate, read-out: IC50, inhibition of mitochondrial Ca2+ uptake.
Chain of T. cruzi mitochondrial Ca2+ uniporter complex, TcMICU1-KO cells (Q4DHJ5 entry or part of it): as the sequence (Q4DHJ5 entry or part of it) above
Chain of T. cruzi mitochondrial Ca2+ uniporter complex, TcMICU1-KO cells (Q4DL37 entry or part of it): as the sequence (Q4DL37 entry or part of it) above
Chain of T. cruzi mitochondrial Ca2+ uniporter complex, TcMICU1-KO cells (Q4DYG3 entry or part of it): as the sequence (Q4DYG3 entry or part of it) above
Text: as §1, §2, §4, §3

Experiment [5] has as its system T. cruzi trypomastigotes. The experiment is described as follows: Trypomastigote attachment assay to glutaraldehyde-fixed Vero cells. Type of experiment: cell-based, Trypanosoma cruzi. To be noted: 30 min preincubation with 1 µM antimycin A; 1 h at 37 °C on fixed Vero cells. Here is the method: (§5) We analyzed the growth rate of epimastigotes in LIT medium at different Ru265 concentrations (1 µM, 5 µM, and 10 µM). […] The presence of metabolic inhibitors affects attachment and invasion of T. cruzi trypomastigotes to mammalian cells since these are an active process which depends on the expenditure of parasite energy. Preincubation of trypomastigotes for 30 min with antimycin A, which blocks electron transport from cytochrome b to c1, decreased the ability of trypomastigotes to attach to glutaraldehyde-fixed cells (Figure 4b) and invade intact host cells (Figure 4c).
(§6) Figure 4 Effect of Ru265 on Trypanosoma cruzi. (a) Effect of Ru265 on epimastigote growth. […] After 1 h of incubation at 37 °C, the cells were washed, and the number of attached trypomastigotes was counted. […] After 4 h of incubation at 37 °C, the cells were washed, and the number of intracellular parasites was counted. […] (f) Routine respiration (initial oxygen flux values), leak respiration after the addition of 0.5 µg/mL of oligomycin A, and electron transfer system (ETS) capacity after the sequential additions of FCCP (0.2 μM each) were measured for each condition. […] (g) Representative experiment showing mitochondrial Ca^2+ uptake by intact epimastigotes in relative fluorescence units (RFU). […] (h) Changes in fluorescence (before and after ionomycin addition) from three experiments like that shown in panel (g). […]

Experiment [6] has as its system T. cruzi trypomastigotes. The experiment is described as follows: In vitro infection assay of Vero cells by trypomastigotes. To be noted: 30 min preincubation with 1 µM antimycin A; 4 h on Vero cells. It is filed as cell-based, Trypanosoma cruzi. Here is the method:
as §5, §6

Chain of T. cruzi mitochondrial Ca2+ uniporter complex, TcMICU2-KO cells (Q4DL37 entry or part of it): as the sequence (Q4DL37 entry or part of it) above
Chain of T. cruzi mitochondrial Ca2+ uniporter complex, TcMICU2-KO cells (Q4DYG3 entry or part of it): as the sequence (Q4DYG3 entry or part of it) above
Chain of T. cruzi mitochondrial Ca2+ uniporter complex, TcMICU2-KO cells (Q4DHJ5 entry or part of it): as the sequence (Q4DHJ5 entry or part of it) above

Regarding `N.N.N.N.N.N.N.N.N.N.N.N.N.N.[Cl-].[Cl-].[Cl-].[Cl-].[Cl-].[Cl-].[O-2].[O-2].[Ru+3].[Ru+3].[Ru+4]` [RuRed, ruthenium red], the IC50 (usually the point on the concentration scale where inhibition reaches its midpoint) in experiment [1] was 117 ± 16.9 nM; in experiment [3], 11.9 ± 1.4 nM; in experiment [4] it was 148 ± 21.7 nM. Further, in the experiment on mammalian mitochondria, the “Effective concentration range in mammalian mitochondria” value was “effective in the submicromolar range”. In addition, in experiment [2], the “Effect on mitochondrial membrane potential (Δψm) and response to ADP” value is “did not significantly affect”.

With `N.N.N.N.N.N.N.N.[Cl][Ru+3].[NH]=[Ru][Cl]` [Ru265], the concentration for half-maximal inhibition (IC50) was found to be 26.3 ± 2 nM in experiment [1], 14.1 ± 1.3 nM in experiment [3] and 12.1 ± 2.3 nM in experiment [4].

Take Ru360: the IC50 in experiment [1] stood at 186 ± 15.2 nM; in experiment [3], 63.6 ± 6.9 nM; in experiment [4] it was 46.7 ± 2.7 nM. Further, the “Effect on mitochondrial membrane potential (Δψm) and response to ADP” value in experiment [2] is recorded as “did not significantly affect”.

Regarding `CCCCCC[C@H]1C(=O)O[C@H](C)[C@H](NC(=O)c2cccc(NC=O)c2O)C(=O)O[C@@H](C)[C@@H]1OC(=O)CC(C)C` [antimycin A], in the experiment with T. cruzi trypomastigotes [5], the “Ability of trypomastigotes to attach to glutaraldehyde-fixed cells” value is “decreased”. For the same molecule, the “Ability of trypomastigotes to invade intact host cells” value in the experiment with T. cruzi trypomastigotes [6] is “decreased”.
